For one assay, the species on record is Homo sapiens. The assay can be described thus: Inhibition of human full length PKA expressed in baculovirus assessed as substrate phosphorylation using fluorescence-labelled peptides as substrate at 8 uM after 90 mins by microfluidic peptide phosphorylation assay.
Assay [1] has as its target T1, Serine/threonine-protein kinase D3 (Homo sapiens) (UniProt O94806).
T1 sequence (whole entry): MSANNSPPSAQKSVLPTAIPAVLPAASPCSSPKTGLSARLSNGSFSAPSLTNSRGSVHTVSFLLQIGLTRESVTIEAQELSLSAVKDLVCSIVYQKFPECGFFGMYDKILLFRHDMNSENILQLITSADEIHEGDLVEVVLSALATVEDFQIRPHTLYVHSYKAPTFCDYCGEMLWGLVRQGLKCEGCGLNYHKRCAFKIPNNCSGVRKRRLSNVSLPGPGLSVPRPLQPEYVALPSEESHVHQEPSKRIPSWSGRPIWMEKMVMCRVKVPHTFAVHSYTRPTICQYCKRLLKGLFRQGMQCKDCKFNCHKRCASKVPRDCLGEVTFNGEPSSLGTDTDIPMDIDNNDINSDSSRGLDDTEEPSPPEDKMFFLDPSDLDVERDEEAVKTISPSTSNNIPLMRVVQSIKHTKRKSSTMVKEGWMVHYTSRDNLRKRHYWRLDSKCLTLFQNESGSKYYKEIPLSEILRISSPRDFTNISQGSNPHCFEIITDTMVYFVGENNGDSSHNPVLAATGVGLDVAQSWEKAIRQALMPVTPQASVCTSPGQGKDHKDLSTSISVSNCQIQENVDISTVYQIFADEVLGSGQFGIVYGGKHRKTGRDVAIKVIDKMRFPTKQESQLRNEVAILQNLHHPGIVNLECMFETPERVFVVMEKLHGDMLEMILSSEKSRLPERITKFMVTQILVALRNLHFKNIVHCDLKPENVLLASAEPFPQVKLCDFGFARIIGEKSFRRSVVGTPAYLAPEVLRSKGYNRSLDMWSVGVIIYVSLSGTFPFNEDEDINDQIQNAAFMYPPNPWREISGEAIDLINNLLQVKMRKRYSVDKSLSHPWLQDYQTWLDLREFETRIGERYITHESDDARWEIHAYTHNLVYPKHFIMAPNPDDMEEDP
The assay can be described thus: Inhibition of human full length PKD3 expressed in baculovirus assessed as substrate phosphorylation using fluorescence-labelled peptides as substrate at 8 uM after 90 mins by microfluidic peptide phosphorylation assay.

Assay [2] addresses T2, Protein kinase C zeta type (Homo sapiens) (UniProt Q05513).
T2 sequence (whole entry): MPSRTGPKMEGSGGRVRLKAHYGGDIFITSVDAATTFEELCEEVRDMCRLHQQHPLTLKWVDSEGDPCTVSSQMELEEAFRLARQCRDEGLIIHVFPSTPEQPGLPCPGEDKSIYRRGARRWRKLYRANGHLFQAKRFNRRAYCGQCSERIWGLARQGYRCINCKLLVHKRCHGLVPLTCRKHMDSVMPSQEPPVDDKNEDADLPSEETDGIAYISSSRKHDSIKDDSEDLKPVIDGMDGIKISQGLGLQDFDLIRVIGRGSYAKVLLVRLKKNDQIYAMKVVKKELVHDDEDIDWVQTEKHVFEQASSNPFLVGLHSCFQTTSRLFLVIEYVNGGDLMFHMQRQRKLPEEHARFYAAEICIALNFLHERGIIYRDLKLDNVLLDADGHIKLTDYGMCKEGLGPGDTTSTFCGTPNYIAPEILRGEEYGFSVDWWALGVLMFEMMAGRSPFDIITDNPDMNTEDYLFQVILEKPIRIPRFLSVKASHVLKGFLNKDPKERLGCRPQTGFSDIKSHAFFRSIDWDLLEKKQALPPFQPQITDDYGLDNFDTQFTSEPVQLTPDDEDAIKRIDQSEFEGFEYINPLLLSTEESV
The assay can be described thus: Inhibition of human full length PKC zeta expressed in baculovirus assessed as substrate phosphorylation using fluorescence-labelled peptides as substrate at 9 uM after 90 mins by microfluidic peptide phosphorylation assay.

For assay [3], the target named is Serine/threonine-protein kinase MARK1 (Homo sapiens) (UniProt Q9P0L2). As to the kind of experiment: Inhibition of human full length MARK1 expressed in baculovirus assessed as substrate phosphorylation using fluorescence-labelled peptides as substrate at 1000 uM after 90 mins by microfluidic peptide phosphorylation assay.
Assay [4] concerns the target Fibroblast growth factor receptor 4 (Homo sapiens) (UniProt P22455). As to the kind of experiment: Inhibition of human FGFR4 catalytic domain expressed in baculovirus assessed as substrate phosphorylation using fluorescence-labelled peptides as substrate at 1000 uM after 90 mins by microfluidic peptide phosphorylation assay.
The target in assay [5] is T3, Serine/threonine-protein kinase Sgk1 (Homo sapiens) (UniProt O00141).
T3 sequence (whole entry): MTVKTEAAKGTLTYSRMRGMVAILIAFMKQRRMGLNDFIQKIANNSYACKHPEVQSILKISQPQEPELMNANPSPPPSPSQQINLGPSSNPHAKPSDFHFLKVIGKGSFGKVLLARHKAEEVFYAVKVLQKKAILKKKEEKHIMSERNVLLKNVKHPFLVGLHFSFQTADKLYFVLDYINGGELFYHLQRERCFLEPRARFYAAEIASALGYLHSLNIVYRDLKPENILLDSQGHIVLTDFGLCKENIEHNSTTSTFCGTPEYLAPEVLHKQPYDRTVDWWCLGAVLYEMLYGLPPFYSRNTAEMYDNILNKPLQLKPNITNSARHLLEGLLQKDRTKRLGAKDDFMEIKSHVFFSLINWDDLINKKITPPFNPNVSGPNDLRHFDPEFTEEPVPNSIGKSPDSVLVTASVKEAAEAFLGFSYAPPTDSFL
The assay can be described thus: Inhibition of human truncated SGK1 expressed in baculovirus assessed as substrate phosphorylation using fluorescence-labelled peptides as substrate at […] after 90 mins by microfluidic peptide phosphorylation assay.

By inhibition is commonly meant the drop in the measured response relative to a control, in per cent.

Chain of Fibroblast growth factor receptor 4 (Homo sapiens) (P22455 22-802 limits assumed): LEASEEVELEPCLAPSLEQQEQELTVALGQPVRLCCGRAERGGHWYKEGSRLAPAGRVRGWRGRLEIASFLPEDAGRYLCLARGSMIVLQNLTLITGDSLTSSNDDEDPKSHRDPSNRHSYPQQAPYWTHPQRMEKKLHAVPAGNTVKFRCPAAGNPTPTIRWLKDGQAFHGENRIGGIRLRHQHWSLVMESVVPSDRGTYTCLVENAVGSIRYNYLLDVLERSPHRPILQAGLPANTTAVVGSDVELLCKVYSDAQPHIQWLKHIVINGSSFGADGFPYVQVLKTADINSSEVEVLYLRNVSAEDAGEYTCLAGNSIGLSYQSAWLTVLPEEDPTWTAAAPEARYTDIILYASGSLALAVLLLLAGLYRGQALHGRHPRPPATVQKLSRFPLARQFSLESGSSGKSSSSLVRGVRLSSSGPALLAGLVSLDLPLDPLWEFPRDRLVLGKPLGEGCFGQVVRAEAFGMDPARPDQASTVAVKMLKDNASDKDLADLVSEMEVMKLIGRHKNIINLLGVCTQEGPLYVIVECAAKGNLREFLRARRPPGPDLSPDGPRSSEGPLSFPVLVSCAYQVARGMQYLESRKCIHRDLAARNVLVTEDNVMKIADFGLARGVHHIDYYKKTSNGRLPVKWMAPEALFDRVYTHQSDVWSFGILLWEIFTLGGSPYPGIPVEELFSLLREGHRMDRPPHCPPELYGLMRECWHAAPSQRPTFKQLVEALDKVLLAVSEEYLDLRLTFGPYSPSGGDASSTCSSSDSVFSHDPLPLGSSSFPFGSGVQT
Chain of Serine/threonine-protein kinase MARK1 (Homo sapiens) (Q9P0L2 whole entry, looked up, the tested form may be a part): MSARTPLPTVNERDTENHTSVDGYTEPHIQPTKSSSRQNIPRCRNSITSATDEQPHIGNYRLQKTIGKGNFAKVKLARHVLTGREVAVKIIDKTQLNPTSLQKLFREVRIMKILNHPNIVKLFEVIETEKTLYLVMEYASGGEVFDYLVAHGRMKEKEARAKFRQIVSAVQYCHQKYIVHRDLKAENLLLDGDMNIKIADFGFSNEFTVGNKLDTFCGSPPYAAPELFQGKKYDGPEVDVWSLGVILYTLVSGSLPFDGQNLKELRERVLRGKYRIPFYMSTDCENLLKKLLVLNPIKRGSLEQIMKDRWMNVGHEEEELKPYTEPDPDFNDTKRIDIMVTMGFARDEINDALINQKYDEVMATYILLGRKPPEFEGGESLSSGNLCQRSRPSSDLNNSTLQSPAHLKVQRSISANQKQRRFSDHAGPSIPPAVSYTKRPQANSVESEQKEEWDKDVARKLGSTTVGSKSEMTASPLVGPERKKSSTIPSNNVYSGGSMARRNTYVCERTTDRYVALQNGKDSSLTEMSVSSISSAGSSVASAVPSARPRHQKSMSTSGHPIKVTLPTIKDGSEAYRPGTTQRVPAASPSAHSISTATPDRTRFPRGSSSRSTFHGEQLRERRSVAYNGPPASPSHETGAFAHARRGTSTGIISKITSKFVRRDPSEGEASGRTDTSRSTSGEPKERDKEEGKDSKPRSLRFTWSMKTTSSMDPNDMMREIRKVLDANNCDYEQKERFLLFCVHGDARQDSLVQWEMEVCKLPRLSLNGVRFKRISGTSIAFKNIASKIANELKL

On to `NCC1CCN(c2ncnc3[nH]ccc23)CC1`, for which the inhibition stood at 29.5% in the assay filed under Homo sapiens and 0% in assay [1].

Turning to `NCC1CN(c2ncnc3[nH]c4cnccc4c23)CCO1` (stereo unspecified), in assay [2], the inhibition amounted to 22%.

With `c1cnc2[nH]ccc2c1`, the inhibition came out at 93.5% in assay [3] and 28.5% in assay [4].

Take `COC(=O)c1cnc(Nc2cnc(C#N)cn2)cc1NCC1CCNCC1`: the inhibition in assay [5] is 4.5%.

The values are drawn from ChEMBL document CHEMBL3132769, “Fragment growing to retain or alter the selectivity of anchored kinase hinge-binding fragments” (Medchemcomm, 2014).
